Test results reported in ChEMBL document CHEMBL4400519, “Indazolylketones as new multitarget cannabinoid drugs” (Eur J Med Chem, 2019).
Active and inactive are the calls of the source. The calls are words filed in the database; no cut-off is given here.

How the values were obtained:
[1] = target: T1, Cannabinoid receptor (Mus musculus) (UniProt P47746+P47936); assay: Agonist activity at cannabinoid receptor in ICR mouse vas deferens assessed as inhibition of electrically induced contractions at 10^-7 M after 10 mins relative to control; assay type: protein assay
T1 sequence (P47746 whole entry, looked up): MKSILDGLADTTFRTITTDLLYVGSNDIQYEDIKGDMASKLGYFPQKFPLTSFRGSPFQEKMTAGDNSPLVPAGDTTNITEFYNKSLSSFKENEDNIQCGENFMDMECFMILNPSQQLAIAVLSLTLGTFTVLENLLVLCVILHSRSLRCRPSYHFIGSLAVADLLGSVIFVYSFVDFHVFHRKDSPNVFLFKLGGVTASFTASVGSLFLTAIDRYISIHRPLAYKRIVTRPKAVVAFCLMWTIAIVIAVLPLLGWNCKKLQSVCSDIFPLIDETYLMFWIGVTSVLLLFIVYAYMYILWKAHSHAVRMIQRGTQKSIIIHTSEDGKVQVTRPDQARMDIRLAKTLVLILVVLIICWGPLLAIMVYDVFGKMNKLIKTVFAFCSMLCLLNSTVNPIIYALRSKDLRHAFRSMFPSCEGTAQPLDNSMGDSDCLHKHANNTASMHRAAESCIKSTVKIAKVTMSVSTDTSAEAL
T1 sequence (P47936 whole entry, looked up): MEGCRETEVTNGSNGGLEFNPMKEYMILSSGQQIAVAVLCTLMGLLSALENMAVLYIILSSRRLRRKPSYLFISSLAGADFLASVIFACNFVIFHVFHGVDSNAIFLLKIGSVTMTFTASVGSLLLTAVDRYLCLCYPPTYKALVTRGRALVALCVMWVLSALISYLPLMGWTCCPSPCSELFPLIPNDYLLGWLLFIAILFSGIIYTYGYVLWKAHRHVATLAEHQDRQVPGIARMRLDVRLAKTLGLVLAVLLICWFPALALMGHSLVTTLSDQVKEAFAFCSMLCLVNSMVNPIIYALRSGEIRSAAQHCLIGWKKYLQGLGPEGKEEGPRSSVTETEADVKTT

Homo sapiens [2] = species on record: Homo sapiens; assay: Antiproliferative activity against Alzheimer's patient derived lymphoblast cells at 5 uM after 72 hrs by MTT assay; assay type: functional
Homo sapiens [3] = species on record: Homo sapiens; assay: Antiproliferative activity against Alzheimer's patient derived lymphoblast cells at 5 uM in presence of CB2 antagonist AM630 after 72 hrs by MTT assay; assay type: functional
SH-SY5Y [4] = assay: Neuroprotective activity against amyloid beta-induced neurodegeneration in human SH-SY5Y cells at 10 uM preincubated for 1 hr followed by amyloid beta addition and measured after 24 hrs CB2 antagonist AM630 by MTT assay; assay type: functional, cell-based
SH-SY5Y [5] = assay: Neuroprotective activity against amyloid beta-induced neurodegeneration in human SH-SY5Y cells at 10 uM preincubated for 1 hr followed by amyloid beta addition and measured after 24 hrs by MTT assay; assay type: functional, cell-based
[6] = target: T1, Cannabinoid receptor (Mus musculus); assay: Agonist activity at cannabinoid receptor in ICR mouse vas deferens assessed as inhibition of electrically induced contractions at 8.1 x 10^-6 M after 10 mins in presence of CB2 antagonist AM630 relative to control; assay type: protein assay
[7] = Antioxidant activity assessed as trolox equivalent of APPH-induced radical scavenging activity by ORAC-FL assay; assay type: functional
[8] = target: T1, Cannabinoid receptor (Mus musculus); assay: Agonist activity at cannabinoid receptor in ICR mouse vas deferens assessed as inhibition of electrically induced contractions at 1.82 x 10^-5 M after 10 mins in presence of CB2 antagonist AM630 relative to control; assay type: protein assay
[9] = target: T1, Cannabinoid receptor (Mus musculus); assay: Agonist activity at cannabinoid receptor in ICR mouse vas deferens assessed as inhibition of electrically induced contractions at 10^-7 M after 10 mins in presence of CB1 antagonist AM251 relative to control; assay type: protein assay
[10] = target: T1, Cannabinoid receptor (Mus musculus); assay: Agonist activity at cannabinoid receptor in ICR mouse vas deferens assessed as inhibition of electrically induced contractions at 3 x 10^-7 M after 10 mins relative to control; assay type: protein assay
Acetylcholinesterase [11] = target: T2, Acetylcholinesterase (Homo sapiens, UniProt P22303); assay: Inhibition of human erythrocyte AChE using acetylthiocholine as substrate by Ellman's assay
T2 sequence (P22303 whole entry): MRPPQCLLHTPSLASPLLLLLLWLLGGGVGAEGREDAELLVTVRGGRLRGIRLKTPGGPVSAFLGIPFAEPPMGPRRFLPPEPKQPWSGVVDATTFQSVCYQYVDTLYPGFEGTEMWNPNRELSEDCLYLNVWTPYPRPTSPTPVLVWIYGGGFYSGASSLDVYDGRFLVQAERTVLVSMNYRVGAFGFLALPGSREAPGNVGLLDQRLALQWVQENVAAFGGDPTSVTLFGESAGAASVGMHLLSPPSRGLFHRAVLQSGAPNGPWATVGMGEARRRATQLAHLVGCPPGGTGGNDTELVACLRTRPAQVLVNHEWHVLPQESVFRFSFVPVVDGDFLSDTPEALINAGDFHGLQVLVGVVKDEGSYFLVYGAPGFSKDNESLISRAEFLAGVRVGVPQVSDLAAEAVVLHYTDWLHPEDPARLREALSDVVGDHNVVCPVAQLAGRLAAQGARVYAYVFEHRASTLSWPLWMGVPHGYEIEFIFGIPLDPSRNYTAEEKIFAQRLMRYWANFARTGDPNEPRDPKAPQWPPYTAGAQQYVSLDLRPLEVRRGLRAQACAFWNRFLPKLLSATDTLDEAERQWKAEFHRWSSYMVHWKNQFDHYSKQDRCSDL

[12] = target: T1, Cannabinoid receptor (Mus musculus); assay: Agonist activity at cannabinoid receptor in ICR mouse vas deferens assessed as inhibition of electrically induced contractions at 8.1 x 10^-6 M after 10 mins in presence of CB1 antagonist AM251 relative to control; assay type: protein assay
Cholinesterase [13] = target: T3, Cholinesterase (Homo sapiens, UniProt P06276); assay: Inhibition of human serum BChE using butyrylthiocholine as substrate by Ellman's assay
T3 sequence (P06276 whole entry): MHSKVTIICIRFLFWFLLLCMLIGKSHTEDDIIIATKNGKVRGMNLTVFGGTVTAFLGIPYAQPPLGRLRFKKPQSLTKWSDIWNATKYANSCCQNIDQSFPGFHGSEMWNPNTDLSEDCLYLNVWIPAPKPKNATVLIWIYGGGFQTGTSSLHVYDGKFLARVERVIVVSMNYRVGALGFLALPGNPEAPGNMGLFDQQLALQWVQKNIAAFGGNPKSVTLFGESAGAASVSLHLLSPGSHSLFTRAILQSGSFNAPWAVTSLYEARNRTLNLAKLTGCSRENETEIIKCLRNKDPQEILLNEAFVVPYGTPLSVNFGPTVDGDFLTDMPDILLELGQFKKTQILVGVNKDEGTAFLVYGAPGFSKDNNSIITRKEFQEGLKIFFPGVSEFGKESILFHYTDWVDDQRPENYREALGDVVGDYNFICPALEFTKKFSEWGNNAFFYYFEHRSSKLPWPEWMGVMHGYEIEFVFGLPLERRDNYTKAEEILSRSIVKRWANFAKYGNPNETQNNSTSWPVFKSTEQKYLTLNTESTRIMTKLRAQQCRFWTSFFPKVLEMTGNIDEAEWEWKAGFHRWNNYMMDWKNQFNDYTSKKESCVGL

[14] = target: Beta-secretase 1 (Homo sapiens) (UniProt P56817); assay: Inhibition of human BACE1 at 10 uM incubated for 60 mins using rhodamine-EVNLDAEFK-quencher substrate by FRET assay
Sequence of Beta-secretase 1 (Homo sapiens) (P56817 whole entry): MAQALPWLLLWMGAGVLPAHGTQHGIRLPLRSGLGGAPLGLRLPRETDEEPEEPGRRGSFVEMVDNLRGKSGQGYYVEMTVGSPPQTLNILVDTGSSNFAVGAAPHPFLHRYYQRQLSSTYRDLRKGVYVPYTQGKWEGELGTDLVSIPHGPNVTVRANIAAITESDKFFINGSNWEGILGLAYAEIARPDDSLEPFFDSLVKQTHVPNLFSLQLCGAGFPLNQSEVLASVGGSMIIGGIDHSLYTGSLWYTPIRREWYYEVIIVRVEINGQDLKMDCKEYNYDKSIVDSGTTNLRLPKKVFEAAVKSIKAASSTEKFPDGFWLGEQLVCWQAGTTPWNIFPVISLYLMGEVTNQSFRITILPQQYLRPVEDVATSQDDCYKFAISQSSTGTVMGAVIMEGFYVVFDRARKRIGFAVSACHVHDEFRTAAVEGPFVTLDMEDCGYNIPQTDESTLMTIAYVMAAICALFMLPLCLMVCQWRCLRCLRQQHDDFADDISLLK

[15] = target: T1, Cannabinoid receptor (Mus musculus); assay: Agonist activity at cannabinoid receptor in ICR mouse vas deferens assessed as inhibition of electrically induced contractions at 8.1 x 10^-6 M after 10 mins relative to control; assay type: protein assay
[16] = target: T1, Cannabinoid receptor (Mus musculus); assay: Agonist activity at cannabinoid receptor in ICR mouse vas deferens assessed as inhibition of electrically induced contractions at 2.7 x 10^-6 M after 10 mins in presence of CB1 antagonist AM251 relative to control; assay type: protein assay
[17] = target: T1, Cannabinoid receptor (Mus musculus); assay: Agonist activity at cannabinoid receptor in ICR mouse vas deferens assessed as inhibition of electrically induced contractions at 1.82 x 10^-5 M after 10 mins relative to control; assay type: protein assay
[18] = Antiproliferative activity against normal human derived lymphoblast cells at 5 uM after 72 hrs by MTT assay
[19] = target: T1, Cannabinoid receptor (Mus musculus); assay: Agonist activity at cannabinoid receptor in ICR mouse vas deferens assessed as inhibition of electrically induced contractions at 1.82 x 10^-5 M after 10 mins in presence of CB1 antagonist AM251 relative to control; assay type: protein assay
[20] = target: T1, Cannabinoid receptor (Mus musculus); assay: Agonist activity at cannabinoid receptor in ICR mouse vas deferens assessed as inhibition of electrically induced contractions at 9 x 10^-7 M after 10 mins relative to control; assay type: protein assay
[21] = target: T1, Cannabinoid receptor (Mus musculus); assay: Agonist activity at cannabinoid receptor in ICR mouse vas deferens assessed as inhibition of electrically induced contractions at 3 x 10^-7 M after 10 mins in presence of CB1 antagonist AM251 relative to control; assay type: protein assay
[22] = target: T1, Cannabinoid receptor (Mus musculus); assay: Agonist activity at cannabinoid receptor in ICR mouse vas deferens assessed as inhibition of electrically induced contractions at 9 x 10^-7 M after 10 mins in presence of CB1 antagonist AM251 relative to control; assay type: protein assay
[23] = target: T1, Cannabinoid receptor (Mus musculus); assay: Agonist activity at cannabinoid receptor in ICR mouse vas deferens assessed as inhibition of electrically induced contractions at 2.7 x 10^-6 M after 10 mins relative to control; assay type: protein assay
[24] = target: T1, Cannabinoid receptor (Mus musculus); assay: Agonist activity at cannabinoid receptor in ICR mouse vas deferens assessed as inhibition of electrically induced contractions at 2.7 x 10^-6 M after 10 mins in presence of CB1 antagonist AM251 and CB2 antagonist AM630 relative to control; assay type: protein assay
SH-SY5Y [25] = assay: Neuroprotective activity against amyloid beta-induced neurodegeneration in human SH-SY5Y cells at 20 uM preincubated for 1 hr followed by amyloid beta addition and measured after 24 hrs by MTT assay; assay type: functional, cell-based
[26] = target: T1, Cannabinoid receptor (Mus musculus); assay: Agonist activity at cannabinoid receptor in ICR mouse vas deferens assessed as inhibition of electrically induced contractions at 3 x 10^-7 M after 10 mins in presence of CB1 antagonist AM251 and CB2 antagonist AM630 relative to control; assay type: protein assay
[27] = target: T1, Cannabinoid receptor (Mus musculus); assay: Agonist activity at cannabinoid receptor in ICR mouse vas deferens assessed as inhibition of electrically induced contractions at 9 x 10^-7 M after 10 mins in presence of CB1 antagonist AM251 and CB2 antagonist AM630 relative to control; assay type: protein assay
[28] = target: T1, Cannabinoid receptor (Mus musculus); assay: Agonist activity at cannabinoid receptor in ICR mouse vas deferens assessed as inhibition of electrically induced contractions at 1.82 x 10^-5 M after 10 mins in presence of CB1 antagonist AM251 and CB2 antagonist AM630 relative to control; assay type: protein assay
Acetylcholinesterase [29] = target: T2, Acetylcholinesterase; assay: Inhibition of human erythrocyte AChE at 10 uM using acetylthiocholine as substrate by Ellman's assay
[30] = target: T1, Cannabinoid receptor (Mus musculus); assay: Agonist activity at cannabinoid receptor in ICR mouse vas deferens assessed as inhibition of electrically induced contractions at 8.1 x 10^-6 M after 10 mins in presence of CB1 antagonist AM251 and CB2 antagonist AM630 relative to control; assay type: protein assay
[31] = target: T1, Cannabinoid receptor (Mus musculus); assay: Agonist activity at cannabinoid receptor in ICR mouse vas deferens assessed as inhibition of electrically induced contractions at 10^-7 M after 10 mins in presence of CB1 antagonist AM251 and CB2 antagonist AM630 relative to control; assay type: protein assay
Cholinesterase [32] = target: T3, Cholinesterase; assay: Non-competitive inhibition of human serum BChE using butyrylthiocholine as substrate by Lineweaver-Burk plot analysis

Cc1cc(C)c(C(=O)n2nc(OCCN3CCCCC3)c3ccccc32)c(C)c1
inhibition [1]: 2.6% | Activity (Homo sapiens [2]): Active | Activity (Homo sapiens [3]): inactive | Activity (SH-SY5Y [4]): inactive | Activity (SH-SY5Y [5]): Active | inhibition [6]: -4.7% | Activity [7]: inactive | inhibition [8]: 1.3% | inhibition [9]: -0.4% | inhibition [10]: 3.6% | IC50 (Acetylcholinesterase [11]): 11.6 µM | inhibition [12]: 19.8% | IC50 (Cholinesterase [13]): 0.29 µM | inhibition [14]: 12% | inhibition [15]: 30.7% | inhibition [16]: 8.7% | inhibition [17]: 56.8% | Activity [18]: Non-Toxic | inhibition [19]: 40.7% | inhibition [20]: 6.5% | inhibition [21]: 1.4% | inhibition [22]: 7.6% | inhibition [23]: 14%

COc1ccc(COc2nn(CCN(C(C)C)C(C)C)c3ccccc23)cc1
inhibition [24]: 20.3% | Activity (SH-SY5Y [25]): Active | inhibition [1]: 7.5% | Activity (Homo sapiens [2]): Active | Activity (Homo sapiens [3]): inactive | inhibition [26]: 8.2% | Activity (SH-SY5Y [5]): Active | inhibition [10]: 8.5% | IC50 (Acetylcholinesterase [11]): > 10 µM | inhibition [14]: 9% | inhibition [15]: 74.7% | inhibition [27]: 12% | inhibition [28]: 84% | inhibition (Acetylcholinesterase [29]): 24% | inhibition [17]: 86.4% | Activity [18]: Non-Toxic | inhibition [30]: 60% | inhibition [20]: 18.6% | inhibition [31]: 1.3% | inhibition (Cholinesterase [32]): Active | inhibition [23]: 43.1%
